According to patent US6339042B1, “Herbicidal N-cyclohexadienyl heteroaryloxyacetamides” (American Cyanamid Co., priority 1999, dated 2002):

Tests used:
Lolium perenne [1] = experiment: Post-emergence herbicidal evaluation, LOLPE; conditions: three weeks after treatment
Procedure: (§2) Each pot is examined three weeks after treatment and phytotoxicity is assessed according to the rating system set forth below.
(§3) These acetone solutions are diluted with water and the resulting formulations applied at dosage levels equivalent of about 0.4 to 0.1 kg per hectare of test compound per pot. After spraying the plants are placed on greenhouse benches and are cared for in the usual manner, commensurate with conventional greenhouse practices.

Apera spica venti [2] = experiment: Pre-emergence herbicidal evaluation, APESV; format: in vivo; conditions: three weeks after treatment
Excerpt: (§1) The treated pots are then placed on greenhouse benches, watered and cared for in accordance with conventional greenhouse procedures.

Oryza sativum [3] = experiment: Pre-emergence herbicidal evaluation, ORYSA; format: in vivo; conditions: three weeks after treatment
Excerpt: as §1

Glycine max [4] = experiment: Post-emergence herbicidal evaluation, GLXMA; conditions: three weeks after treatment
Setaria viridis [5] = experiment: Post-emergence herbicidal evaluation, SETVI; conditions: three weeks after treatment
Triticum aestivum [6] = experiment: Pre-emergence herbicidal evaluation, TRZAW; format: in vivo; conditions: three weeks after treatment
Excerpt: as §1

Apera spica venti [7] = experiment: Post-emergence herbicidal evaluation, APESV; conditions: three weeks after treatment
Procedure: The compounds of the invention are tested for pre- and post-emergence herbicidal activity.
as §2, §3

Amaranthus tuberculatus [8] = experiment: Post-emergence herbicidal evaluation, AMATA; format: in vivo; conditions: three weeks after treatment
Setaria viridis [9] = experiment: Pre-emergence herbicidal evaluation, SETVI; format: in vivo; conditions: three weeks after treatment
Excerpt: as §1

Oryza sativum [10] = experiment: Post-emergence herbicidal evaluation, ORYSA; conditions: three weeks after treatment
Lolium perenne [11] = experiment: Pre-emergence herbicidal evaluation, LOLPE; format: in vivo; conditions: three weeks after treatment
Excerpt: as §1

Glycine max [12] = experiment: Pre-emergence herbicidal evaluation, GLXMA; format: in vivo; conditions: three weeks after treatment
Excerpt: as §1

Hordeum vulgare [13] = experiment: Pre-emergence herbicidal evaluation, HORVW; format: in vivo; conditions: three weeks after treatment
Excerpt: as §1

Echinochloa crus-galli [14] = experiment: Post-emergence herbicidal evaluation, ECHCG; conditions: three weeks after treatment
Galium aparine = experiment: Post-emergence herbicidal evaluation, GALAP; conditions: three weeks after treatment
Alopecurus myosuroides [15] = experiment: Pre-emergence herbicidal evaluation, ALOMY; format: in vivo; conditions: three weeks after treatment
Excerpt: as §1

Alopecurus myosuroides [16] = experiment: Post-emergence herbicidal evaluation, ALOMY; conditions: three weeks after treatment
Triticum aestivum [17] = experiment: Post-emergence herbicidal evaluation, TRZAW; conditions: three weeks after treatment
Echinochloa crus-galli [18] = experiment: Pre-emergence herbicidal evaluation, ECHCG; format: in vivo; conditions: three weeks after treatment
Excerpt: as §1

Hordeum vulgare [19] = experiment: Post-emergence herbicidal evaluation, HORVW; conditions: three weeks after treatment
Zea mays [20] = experiment: Pre-emergence herbicidal evaluation, ZEAMX; format: in vivo; conditions: three weeks after treatment
Excerpt: as §1

Zea mays [21] = experiment: Post-emergence herbicidal evaluation, ZEAMX; conditions: three weeks after treatment
Amaranthus tuberculatus [22] = experiment: Pre-emergence herbicidal evaluation, AMATA; format: in vivo; conditions: three weeks after treatment
Excerpt: as §1

## CC1=CC(N(C)C(=O)COc2nnc(C(F)(F)F)s2)=CC(C)(C)C1 [Example 3]
Lolium perenne [1]; 0.200 kg/ha
  phytotoxicity rating LOLPE: 7 (7 - Good herbicidal effect)
Lolium perenne [1]; 0.400 kg/ha
  phytotoxicity rating LOLPE: 7 (7 - Good herbicidal effect)
Apera spica venti [2]; 0.100 kg/ha
  phytotoxicity rating APESV: 3 (3 - Moderate effect)
Apera spica venti [2]; 0.200 kg/ha
  phytotoxicity rating APESV: 6 (6 - Herbicidal effect)
Apera spica venti [2]; 0.400 kg/ha
  phytotoxicity rating APESV: 8 (8 - Approaching complete kill)
Apera spica venti [2]; 0.800 kg/ha
  phytotoxicity rating APESV: 9 (9 - Complete kill)
Oryza sativum [3]; 0.100 kg/ha
  phytotoxicity rating ORYSA: 1 (1 - Trace effect)
Oryza sativum [3]; 0.200 kg/ha
  phytotoxicity rating ORYSA: 3 (3 - Moderate effect)
Oryza sativum [3]; 0.400 kg/ha
  phytotoxicity rating ORYSA: 6 (6 - Herbicidal effect)
Oryza sativum [3]; 0.800 kg/ha
  phytotoxicity rating ORYSA: 6 (6 - Herbicidal effect)
Glycine max [4]; 0.200 kg/ha
  phytotoxicity rating GLXMA: 2 (2 - Slight effect)
Glycine max [4]; 0.400 kg/ha
  phytotoxicity rating GLXMA: 4 (4 - Injury)
other
  melting point: 54 to 57 °C
Setaria viridis [5]; 0.200 kg/ha
  phytotoxicity rating SETVI: 0 (0 - No effect)
Setaria viridis [5]; 0.400 kg/ha
  phytotoxicity rating SETVI: 0 (0 - No effect)
Triticum aestivum [6]; 0.100 kg/ha
  phytotoxicity rating TRZAW: 0 (0 - No effect)
Triticum aestivum [6]; 0.200 kg/ha
  phytotoxicity rating TRZAW: 1 (1 - Trace effect)
Triticum aestivum [6]; 0.400 kg/ha
  phytotoxicity rating TRZAW: 1 (1 - Trace effect)
Triticum aestivum [6]; 0.800 kg/ha
  phytotoxicity rating TRZAW: 3 (3 - Moderate effect)
Apera spica venti [7]; 0.200 kg/ha
  phytotoxicity rating APESV: 6 (6 - Herbicidal effect)
Apera spica venti [7]; 0.400 kg/ha
  phytotoxicity rating APESV: 3 (3 - Moderate effect)
Amaranthus tuberculatus [8]; 0.200 kg/ha
  phytotoxicity rating AMATA: 0 (0 - No effect)
Amaranthus tuberculatus [8]; 0.400 kg/ha
  phytotoxicity rating AMATA: 0 (0 - No effect)
Setaria viridis [9]; 0.100 kg/ha
  phytotoxicity rating SETVI: 6 (6 - Herbicidal effect)
Setaria viridis [9]; 0.200 kg/ha
  phytotoxicity rating SETVI: 8 (8 - Approaching complete kill)
Setaria viridis [9]; 0.400 kg/ha
  phytotoxicity rating SETVI: 8 (8 - Approaching complete kill)
Setaria viridis [9]; 0.800 kg/ha
  phytotoxicity rating SETVI: 9 (9 - Complete kill)
Oryza sativum [10]; 0.200 kg/ha
  phytotoxicity rating ORYSA: 0 (0 - No effect)
Oryza sativum [10]; 0.400 kg/ha
  phytotoxicity rating ORYSA: 2 (2 - Slight effect)
Lolium perenne [11]; 0.100 kg/ha
  phytotoxicity rating LOLPE: 3 (3 - Moderate effect)
Lolium perenne [11]; 0.200 kg/ha
  phytotoxicity rating LOLPE: 7 (7 - Good herbicidal effect)
Lolium perenne [11]; 0.400 kg/ha
  phytotoxicity rating LOLPE: 9 (9 - Complete kill)
Lolium perenne [11]; 0.800 kg/ha
  phytotoxicity rating LOLPE: 9 (9 - Complete kill)
Glycine max [12]; 0.100 kg/ha
  phytotoxicity rating GLXMA: 0 (0 - No effect)
Glycine max [12]; 0.200 kg/ha
  phytotoxicity rating GLXMA: 0 (0 - No effect)
Glycine max [12]; 0.400 kg/ha
  phytotoxicity rating GLXMA: 0 (0 - No effect)
Glycine max [12]; 0.800 kg/ha
  phytotoxicity rating GLXMA: 0 (0 - No effect)
Hordeum vulgare [13]; 0.100 kg/ha
  phytotoxicity rating HORVW: 0 (0 - No effect)
Hordeum vulgare [13]; 0.200 kg/ha
  phytotoxicity rating HORVW: 1 (1 - Trace effect)
Hordeum vulgare [13]; 0.400 kg/ha
  phytotoxicity rating HORVW: 1 (1 - Trace effect)
Hordeum vulgare [13]; 0.800 kg/ha
  phytotoxicity rating HORVW: 4 (4 - Injury)
Echinochloa crus-galli [14]; 0.200 kg/ha
  phytotoxicity rating ECHCG: 1 (1 - Trace effect)
Echinochloa crus-galli [14]; 0.400 kg/ha
  phytotoxicity rating ECHCG: 4 (4 - Injury)
Galium aparine; 0.200 kg/ha
  phytotoxicity rating GALAP: 4 (4 - Injury)
Galium aparine; 0.400 kg/ha
  phytotoxicity rating GALAP: 5 (5 - Definite injury)
Alopecurus myosuroides [15]; 0.100 kg/ha
  phytotoxicity rating ALOMY: 6 (6 - Herbicidal effect)
Alopecurus myosuroides [15]; 0.200 kg/ha
  phytotoxicity rating ALOMY: 8 (8 - Approaching complete kill)
Alopecurus myosuroides [15]; 0.400 kg/ha
  phytotoxicity rating ALOMY: 8 (8 - Approaching complete kill)
Alopecurus myosuroides [15]; 0.800 kg/ha
  phytotoxicity rating ALOMY: 9 (9 - Complete kill)
Alopecurus myosuroides [16]; 0.200 kg/ha
  phytotoxicity rating ALOMY: 4 (4 - Injury)
Alopecurus myosuroides [16]; 0.400 kg/ha
  phytotoxicity rating ALOMY: 7 (7 - Good herbicidal effect)
Triticum aestivum [17]; 0.200 kg/ha
  phytotoxicity rating TRZAW: 1 (1 - Trace effect)
Triticum aestivum [17]; 0.400 kg/ha
  phytotoxicity rating TRZAW: 3 (3 - Moderate effect)
Echinochloa crus-galli [18]; 0.100 kg/ha
  phytotoxicity rating ECHCG: 6 (6 - Herbicidal effect)
Echinochloa crus-galli [18]; 0.200 kg/ha
  phytotoxicity rating ECHCG: 8 (8 - Approaching complete kill)
Echinochloa crus-galli [18]; 0.400 kg/ha
  phytotoxicity rating ECHCG: 8 (8 - Approaching complete kill)
Echinochloa crus-galli [18]; 0.800 kg/ha
  phytotoxicity rating ECHCG: 9 (9 - Complete kill)
Hordeum vulgare [19]; 0.200 kg/ha
  phytotoxicity rating HORVW: 0 (0 - No effect)
Hordeum vulgare [19]; 0.400 kg/ha
  phytotoxicity rating HORVW: 2 (2 - Slight effect)
Zea mays [20]; 0.100 kg/ha
  phytotoxicity rating ZEAMX: 0 (0 - No effect)
Zea mays [20]; 0.200 kg/ha
  phytotoxicity rating ZEAMX: 1 (1 - Trace effect)
Zea mays [20]; 0.400 kg/ha
  phytotoxicity rating ZEAMX: 3 (3 - Moderate effect)
Zea mays [20]; 0.800 kg/ha
  phytotoxicity rating ZEAMX: 7 (7 - Good herbicidal effect)
Zea mays [21]; 0.200 kg/ha
  phytotoxicity rating ZEAMX: 0 (0 - No effect)
Zea mays [21]; 0.400 kg/ha
  phytotoxicity rating ZEAMX: 0 (0 - No effect)
Amaranthus tuberculatus [22]; 0.100 kg/ha
  phytotoxicity rating AMATA: 0 (0 - No effect)
Amaranthus tuberculatus [22]; 0.200 kg/ha
  phytotoxicity rating AMATA: 0 (0 - No effect)
Amaranthus tuberculatus [22]; 0.400 kg/ha
  phytotoxicity rating AMATA: 6 (6 - Herbicidal effect)
Amaranthus tuberculatus [22]; 0.800 kg/ha
  phytotoxicity rating AMATA: 8 (8 - Approaching complete kill)
